Test results as given in patent US6432969B1, “N-(substituted glycyl)-2 cyanopyrrolidines, pharmaceutical compositions containing them and their use in inhibiting dipeptidyl peptidase-IV” (Novartis AG, priority 2000, dated 2002).

Columns and labels:
[1] = target: T1, DPP-IV activity from human colonic carcinoma cell (Caco-2) extracts (Homo sapiens, UniProt P27487); assay: Caco-2 DPP-IV Assay; format: biochemical; conditions: Caco-2 cell extract, substrate H-Ala-Pro-pNA, 8-point dose-response
T1 construct: Cell extract is prepared from cells solubilized in 10 mM Tris HCl; host or cells: Caco-2, differentiated to induce DPP-IV expression
T1 sequence (P27487 whole entry): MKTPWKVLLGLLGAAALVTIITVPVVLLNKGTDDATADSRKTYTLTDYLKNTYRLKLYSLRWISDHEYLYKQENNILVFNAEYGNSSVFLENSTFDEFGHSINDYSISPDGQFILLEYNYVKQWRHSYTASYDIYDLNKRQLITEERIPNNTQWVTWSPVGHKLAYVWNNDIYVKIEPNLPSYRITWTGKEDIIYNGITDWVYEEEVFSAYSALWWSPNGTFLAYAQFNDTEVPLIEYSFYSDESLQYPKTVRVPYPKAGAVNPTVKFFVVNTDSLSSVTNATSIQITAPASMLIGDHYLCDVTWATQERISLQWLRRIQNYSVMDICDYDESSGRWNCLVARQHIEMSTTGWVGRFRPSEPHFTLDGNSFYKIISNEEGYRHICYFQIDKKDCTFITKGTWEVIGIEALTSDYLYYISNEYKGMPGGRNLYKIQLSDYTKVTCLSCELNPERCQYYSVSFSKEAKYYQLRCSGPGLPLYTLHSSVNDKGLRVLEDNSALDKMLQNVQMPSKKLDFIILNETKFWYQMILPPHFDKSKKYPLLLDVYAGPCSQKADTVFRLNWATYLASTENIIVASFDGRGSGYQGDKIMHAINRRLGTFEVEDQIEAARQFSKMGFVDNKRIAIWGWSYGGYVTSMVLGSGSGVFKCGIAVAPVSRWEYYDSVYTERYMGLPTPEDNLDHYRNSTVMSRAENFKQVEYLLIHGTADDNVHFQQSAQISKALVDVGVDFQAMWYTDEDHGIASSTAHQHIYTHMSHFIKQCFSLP
Experimental: The human colonic carcinoma cell line Caco-2 was obtained from the American Type Culture Collection (ATCC HTB 37). Differentiation of the cells to induce DPP-IV expression was accomplished as described by Reisher, et al. in an article entitled “Increased expression of intestinal cell line Caco-2” in Proc. Natl. Acad. Sci., Vol. 90, pgs. […] Cell extract is prepared from cells solubilized in 10 mM Tris HCl, 0.15 M NaCl, 0.04 t.i.u.aprotinin, 0.5% nonidet-P40, pH 8.0, which is centrifuged at 35,000 g for 30 min. at 4° C. to remove cell debris. The assay is conducted by adding 20 μg solubilized Caco-2 protein, diluted to a final volume of 125 μl in assay buffer (25 mM Tris HCl pH 7.4, 140 mM NaCl, 10 mM KCl, 1% bovine serum albumin) to microtiter plate wells. After a 60 min. incubation at room temperature, the reaction is initiated by adding 25 μl of 1 mM substrate (H-Alanine-Proline-pNA; pNA is p-nitroaniline). […] A standard curve of free p-nitroaniline is generated using 0-500 μM solutions of free pNA in assay buffer. The curve generated is linear and is used for interpolation of substrate consumption (catalytic activity in nmoles substrate cleaved/min).
The potency of the test compounds as DPP-IV inhibitors, expressed as IC50, is calculated from 8-point, dose-response curves using a 4-parameter logistic function.

[2] = target: T2, DPP-IV activity in human plasma (Homo sapiens, UniProt P27487); assay: Human plasma DPP-IV assay; format: biochemical; conditions: substrate H-Gly-Pro-AMC
T2 construct: from tissue; host or cells: human plasma
T2 sequence (P27487 39-766 limits assumed): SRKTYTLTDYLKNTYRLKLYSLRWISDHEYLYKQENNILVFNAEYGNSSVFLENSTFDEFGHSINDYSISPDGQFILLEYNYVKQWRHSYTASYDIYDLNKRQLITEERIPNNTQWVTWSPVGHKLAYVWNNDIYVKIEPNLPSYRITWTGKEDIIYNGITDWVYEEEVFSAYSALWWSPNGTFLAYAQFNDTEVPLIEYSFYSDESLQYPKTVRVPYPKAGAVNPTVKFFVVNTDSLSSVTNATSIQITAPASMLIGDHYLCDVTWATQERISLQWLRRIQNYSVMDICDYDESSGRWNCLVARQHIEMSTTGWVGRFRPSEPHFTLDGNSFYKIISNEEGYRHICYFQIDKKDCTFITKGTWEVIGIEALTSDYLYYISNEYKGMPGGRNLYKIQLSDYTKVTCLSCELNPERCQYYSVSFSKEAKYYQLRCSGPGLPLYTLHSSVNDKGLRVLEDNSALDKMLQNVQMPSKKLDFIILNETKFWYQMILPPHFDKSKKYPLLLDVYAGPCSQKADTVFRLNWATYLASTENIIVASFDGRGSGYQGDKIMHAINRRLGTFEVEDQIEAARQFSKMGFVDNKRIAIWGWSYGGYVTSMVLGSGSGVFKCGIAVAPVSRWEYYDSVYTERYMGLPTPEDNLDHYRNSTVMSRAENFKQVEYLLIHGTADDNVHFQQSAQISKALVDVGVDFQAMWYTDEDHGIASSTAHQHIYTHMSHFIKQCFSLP
Experimental: (§1) Briefly, 5 μl of plasma are added to 96-well flat-bottom micortiter plates (Falcon), followed by the addition of 5 μl of 80 mM MgCl2 in incubation buffer (25 mMHEPES, 140 mM NaCl, 1% RIA-grade BSA, pH 7.8). After a 60 min. incubation at room temperature, the reaction is initiated by the addition of 10 μl of incubation buffer containing 0.1 mM substrate (H-Glycine-Proline-AMC; AMC is 7-amino 4-methylcoumarin). The plates are covered with aluminum foil (or kept in the dark) and incubated at room temperature for 20 min. […] A fluorescence-concentration curve of free AMC is generated using 0-50 μM solutions of AMC in assay buffer. The curve generated is linear and is used for interpolation of substrate consumption (catalytic activity in nmoles substrate cleaved/min). As with the previous assay, the potency of the test compounds as DPP-IV inhibitors, expressed as IC50, is calculated from 8-point, dose-response curves using a 4 parameter logistic function.

[3] = target: T3, DPP-IV activity in rat plasma (Rattus norvegicus, UniProt P14740); assay: Rat plasma DPP-IV assay; format: biochemical; conditions: substrate H-Gly-Pro-AMC
T3 construct: from tissue; host or cells: rat plasma
T3 sequence (P14740 38-767 limits assumed): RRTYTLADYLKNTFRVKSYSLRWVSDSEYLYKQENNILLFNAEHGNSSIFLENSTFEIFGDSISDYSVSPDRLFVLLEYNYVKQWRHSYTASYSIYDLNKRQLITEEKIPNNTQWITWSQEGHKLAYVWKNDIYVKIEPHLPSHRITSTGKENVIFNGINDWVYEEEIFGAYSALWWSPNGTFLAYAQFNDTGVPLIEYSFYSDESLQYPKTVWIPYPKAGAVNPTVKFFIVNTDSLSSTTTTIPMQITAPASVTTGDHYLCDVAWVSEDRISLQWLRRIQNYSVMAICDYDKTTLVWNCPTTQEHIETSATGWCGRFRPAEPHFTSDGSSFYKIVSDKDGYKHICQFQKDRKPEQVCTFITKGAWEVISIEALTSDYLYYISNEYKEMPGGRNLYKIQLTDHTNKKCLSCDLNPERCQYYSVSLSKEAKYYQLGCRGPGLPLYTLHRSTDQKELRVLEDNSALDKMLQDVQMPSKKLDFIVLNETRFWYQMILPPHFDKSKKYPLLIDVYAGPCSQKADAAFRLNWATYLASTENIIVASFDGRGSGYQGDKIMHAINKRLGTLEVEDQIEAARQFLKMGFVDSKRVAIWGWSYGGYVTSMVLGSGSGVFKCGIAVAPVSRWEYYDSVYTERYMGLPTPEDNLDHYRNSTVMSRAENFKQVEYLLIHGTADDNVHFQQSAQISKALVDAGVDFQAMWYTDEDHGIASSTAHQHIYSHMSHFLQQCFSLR
Experimental: as §1

Structure (SMILES) | IC50 [1] [nM] | IC50 [2] [nM] | IC50 [3] [nM] | melting point [°C]
N#C[C@@H]1CCCN1C(=O)CN[C@H]1CC[C@H](NS(=O)(=O)c2cccs2)CC1 [Ex. 2AA] | 56 | 33 | 16 | 
CC(C)(CNc1ccc(C(F)(F)F)cn1)NCC(=O)N1CCC[C@H]1C#N [Ex. 2B, 1-[[[2-[(5-trifluoromethyl-2-pyridinyl)amino]-1,1-dimethylethyl]amino]acetyl]-2-cyano-(S)-pyrrolidine] | 5 | 59 | 11 | 
CC(C)(Cc1ccc(F)cc1)NCC(=O)N1CCC[C@H]1C#N [Ex. 2BB] | 19 | 38 | 13 | 
Cc1ccc(C(=O)NCC(C)(C)NCC(=O)N2CCC[C@H]2C#N)cc1 [Ex. 2C, 1-[[[2-[(4-methylbenzoyl)amino]-1,1-dimethylethyl]amino]acetyl]-2-cyano-(S)pyrrolidine] | 99 | 50 | 25 | 40 to 42
CC(C)(CNc1ncccc1Cl)NCC(=O)N1CCC[C@H]1C#N [Ex. 2D, 1-[[[2-[(3-chloro-2-pyridinyl)amino]-1,1-dimethylethyl]amino]acetyl]-2-cyano-(S)-pyrrolidine] | 44 | 93 | 71 | 
CCCCCC12CCC(NCC(=O)N3CCC[C@H]3C#N)(CC1)CC2 [Ex. 2DD, 1-[[(4-pentylbicyclo[2.2.2]oct-1-yl)amino]acetyl]-2-cyano-(S)-pyrrolidine] | 156 | 66 | 38 | 
CC(C)(CNc1cc(C(F)(F)F)ccn1)NCC(=O)N1CCC[C@H]1C#N [Ex. 2E, 1-[[[2-[(4-trifluoromethyl-2-pyridinyl)amino]-1,1-dimethylethyl]amino]acetyl]-2-cyano-(S)-pyrrolidine] | 27 | 27 | 19 | 38 to 40
CC(C)(CNc1ncc(Cl)cc1Cl)NCC(=O)N1CCC[C@H]1C#N [Ex. 2F, 1-[[[2-[(3,5-dichloro-2-pyridinyl)amino]-1,1-dimethylethyl]amino]acetyl]-2-cyano-(S)-pyrrolidine] | 45 | 46 | 37 | 
CC(C)(CNc1ncccc1C(F)(F)F)NCC(=O)N1CCC[C@H]1C#N [Ex. 2G, 1-[[[2-[(3-trifluoromethyl-2-pyridinyl)amino]-1,1-dimethylethyl]amino]acetyl]-2-cyano-(S)-pyrrolidine] |  |  | 111 | 
N#C[C@@H]1CCCN1C(=O)CN[C@H]1CC[C@H](Oc2cccc(C(F)(F)F)c2)CC1 [Ex. 2GG, 1-[[[4-[(3-trifluoromethyl)phenoxy]cyclohexyl]amino]acetyl]-2-cyano-(S)-pyrrolidine] | 22 | 20 | 10 | 
N#C[C@@H]1CCCN1C(=O)CN[C@H]1CC[C@H](Oc2cccc(Cl)c2)CC1 [Ex. 2HH] | 18 | 18 | 10 | 
CC(C)(CNC(=O)c1ccc(Cl)cc1)NCC(=O)N1CCC[C@H]1C#N [Ex. 2I, 1-[[[2-[(4-chlorobenzoyl)amino]-1,1-dimethylethyl]amino]acetyl]-2-cyano-(S)-pyrrolidine] | 80 | 73 | 31 | 
N#C[C@@H]1CCCN1C(=O)CNC1CCN(C(=O)Nc2ccc(Cl)cc2)CC1 [Ex. 2II, 1-[[[1-[[(4-chlorophenyl)amino]carbonyl]-4-piperidinyl]amino]acetyl]-2-cyano-(S)-pyrrolidine] | 44 | 37 | 12 | 
CC(C)N(C(=O)NCC(C)(C)NCC(=O)N1CCC[C@H]1C#N)C(C)C [Ex. 2J, 1-[[[2-[[(diisopropylamino)carbonyl]amino]-1,1-dimethylethyl]amino]acetyl]-2-cyano-(S)-pyrrolidine] | 41 | 421 | 49 | 
CC(C)N(C(=O)N1CCC(NCC(=O)N2CCC[C@H]2C#N)CC1)C(C)C [Ex. 2JJ, 1-[[[1-[(diisopropylamino)carbonyl]-4-piperidinyl]amino]acetyl]-2-cyano-(S)-pyrrolidine] | 94 | 45 | 5 | 
CC(C)(CNC(=O)Nc1ccc(Cl)cc1)NCC(=O)N1CCC[C@H]1C#N [Ex. 2K, 1-[[[2-[[[(4-chlorophenyl)amino]carbonyl]amino]-1,1-dimethylethyl]amino]acetyl]-2-cyano-(S)-pyrrolidine] | 56 | 305 | 38 | 
N#C[C@@H]1CCCN1C(=O)CNC1CCN(c2nc(-c3ccccc3)cs2)CC1 [Ex. 2KK, 1-[[[1-(4-phenyl-2-thiazolyl)-4-piperidinyl]amino]acetyl]-2-cyano-(S)-pyrrolidine] | 28 | 38 | 12 | 141 to 143
N#C[C@@H]1CCCN1C(=O)CNC1CCN(c2nc(-c3ccc(Cl)cc3)cs2)CC1 [Ex. 2LL] | 61 | 649 | 123 | 
COc1ccc(-c2csc(N3CCC(NCC(=O)N4CCC[C@H]4C#N)CC3)n2)cc1 [Ex. 2MM] | 22 | 71 | 58 | 
N#C[C@@H]1CCCN1C(=O)CN[C@H]1CC[C@H](Nc2nccc(C(F)(F)F)n2)CC1 [Ex. 2O, 1-[[[4-[[(4-trifluoromethyl)-2-pyrimidinyl]amino]cyclohexyl]amino]acetyl]-2-cyano-(S)-pyrrolidine] | 8 | 8 | 9 | 
N#C[C@@H]1CCCN1C(=O)CN[C@H]1CC[C@H](Nc2ncccc2C(F)(F)F)CC1 [Ex. 2P, 1-[[4-[[(3-trifluoromethyl-2-pyridinyl)amino]cyclohexyl]amino]acetyl]-2-cyano-(S)-pyrrolidine] | 15 | 16 | 11 | 
N#C[C@@H]1CCCN1C(=O)CN[C@H]1CC[C@H](NS(=O)(=O)c2ccc(Cl)cc2)CC1 [Ex. 2Q, 1-[[[[4-[(4-chlorophenyl)sulfonyl]amino]cyclohexyl]amino]acetyl]-2-cyano-(S)-pyrrolidine] | 30 | 38 | 38 | 
N#C[C@@H]1CCCN1C(=O)CN[C@H]1CC[C@H](NC(=O)c2ccc(Cl)cc2)CC1 [Ex. 2T, 1-[[[4-[(4-chlorobenzoyl)amino]cyclohexyl]amino]acetyl]-2-cyano-, (S)-pyrrolidine] | 31 | 26 | 37 | 
N#C[C@@H]1CCCN1C(=O)CN[C@H]1CC[C@H](NS(=O)(=O)c2ccc(C(F)(F)F)cc2)CC1 [Ex. 2Z, 1-[[[4-[[[(4-trifluoromethyl)phenyl]sulfonyl]amino]cyclohexyl]amino]acetyl]-2-cyano-(S)-pyrrolidine] | 66 | 122 | 88 | 
N#C[C@@H]1CCCN1C(=O)CNC1CCN(C(=O)c2ccc(Cl)cc2)CC1 [Ex. 4B] | 35 | 77 | 31 | 
N#C[C@@H]1CCCN1C(=O)CNC1CCN(S(=O)(=O)c2ccc(C(F)(F)F)cc2)CC1 [Ex. 4C] | 83 | 68 | 48 | 
N#C[C@@H]1CCCN1C(=O)CNC1CCN(S(=O)(=O)c2ccccc2)CC1 [Ex. 4D, 1-[[(1-phenylsulfonyl-4-piperidinyl)amino]acetyl]-2-cyano-(S)-pyrrolidine] | 114 | 104 | 59 | 
N#C[C@@H]1CCCN1C(=O)CN[C@H]1CC[C@H](NC(=O)c2ccc(F)cc2)CC1 [Ex. 5] | 36 | 5 | 4 | 
